Experiments:
sodium channel = assay: Guanidine influx assay (14C-guanidine radiotracer flux, in vitro); format: cell-based, human or rat; settings: guanidine influx assay using a known cell line that expresses a sodium channel
Outline: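 Cells (human/rat Nav, endogenous or recombinant), ~100,000/well, 20-24 h 37 °C/5% CO2. Wash LNHBSS (150 mM choline Cl, HEPES, glucose). Add cpd + aconitine/14C-guanidine mix, RT. Wash, dry, scintillation count. IC50: 4-PL fit; selectivity as IC50 ratio vs reference channel, e.g. Nav1.5.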

CYP3A4 = CYP3A4 (Homo sapiens, UniProt P08684); assay: Cytochrome P450 (CYP450) Inhibition Assay, CYP3A4 (Vivid fluorescence, BOMCC substrate); settings: human, P450 Baculosomes (recombinant CYP3A4), probe BOMCC (Vivid substrate)
CYP3A4, sequence (P08684 whole entry): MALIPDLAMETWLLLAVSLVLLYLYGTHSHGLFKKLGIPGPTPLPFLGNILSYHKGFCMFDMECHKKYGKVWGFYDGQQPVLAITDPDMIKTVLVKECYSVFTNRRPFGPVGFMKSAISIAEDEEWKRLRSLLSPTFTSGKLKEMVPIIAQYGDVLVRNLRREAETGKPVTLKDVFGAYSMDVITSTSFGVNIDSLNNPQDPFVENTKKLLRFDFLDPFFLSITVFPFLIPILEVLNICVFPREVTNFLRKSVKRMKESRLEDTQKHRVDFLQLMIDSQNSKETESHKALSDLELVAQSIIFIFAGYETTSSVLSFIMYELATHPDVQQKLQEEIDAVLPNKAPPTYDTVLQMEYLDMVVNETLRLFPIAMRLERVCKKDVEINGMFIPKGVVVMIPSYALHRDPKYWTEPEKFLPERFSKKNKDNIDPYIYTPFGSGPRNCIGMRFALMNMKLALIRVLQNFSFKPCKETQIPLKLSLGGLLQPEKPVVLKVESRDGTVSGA

| SMILES | melting point | IC50 (sodium channel; activity level class) | inhibition at 10 µM (CYP3A4) | IC50 (sodium channel) |
| --- | --- | --- | --- | --- |
| Cc1cc2c(cc1C)C1(CO2)C(=O)N(Cc2ccccn2)c2ccccc21 (stereo not shown) [Example 9.28, 5,6-dimethyl-1′-(pyridin-2-ylmethyl)spiro[1-benzofuran-3,3′-indol]-2′(1′H)-one] | 165 to 168 °C | 100 to 1000 nM | < 50% | – |
| Cn1c(=O)oc2cc3c(cc21)C1(CO3)C(=O)Nc2ccccc21 (stereo not shown) [Example 3.14, 1-methylspiro[furo[3,2-f][1,3]benzoxazole-7,3′-indole]-2,2′(1′H,1′H)-dione] | > 250 °C | 1000 to 10000 nM | < 50% | – |
| O=C1Nc2ccccc2C12COc1cc3c(cc12)OCCO3 (stereo not shown) [Example 3.10, 2,3-dihydrospiro[furo[2,3-g][1,4]benzodioxine-8,3′-indol]-2′(1′H)-one] | > 250 °C | 1 to 100 nM | < 50% | – |
| COC(=O)c1ccc(CN2C(=O)C3(COc4cc5c(cc43)OCCO5)c3ccccc32)o1 (stereo not shown) [Example 7.2, methyl 5-[(2′-oxo-2,3-dihydrospiro[furo[2,3-g][1,4]benzodioxine-8,3′-indol]-1′(2′H)-yl)methyl]furan-2-carboxylate] | 88 to 92 °C | 1 to 100 nM | > 50% | – |
| CCCNC(=O)CN1C(=O)C2(COc3cc4c(cc32)CCO4)c2ccccc21 (stereo not shown) [Example 12.51, 2-(2′-oxo-5,6-dihydrospiro[benzo[1,2-b:5,4-b′]difuran-3,3′-indol]-1′(2′H)-yl)-N-propylacetamide] | 207 to 209 °C | – | > 50% | 100 to 1000 nM |
| CCC(CC)CNC(=O)c1ccc(CN2C(=O)C3(COc4cc5c(cc43)CCO5)c3ccccc32)cc1 (stereo not shown) [Example 12.45, N-(2-ethylbutyl)-4-[(2′-oxo-5,6-dihydrospiro[benzo[1,2-b:5,4-b′]difuran-3,3′-indol]-1′(2′H)-yl)methyl]benzamide] | 211 to 213 °C | – | < 50% | 1000 to 10000 nM |
| O=C1N(Cc2noc(C(F)F)n2)c2cccc(Cl)c2C12COc1cc3c(cc12)OCO3 (stereo not shown) [Example 11.21] | 179 to 182 °C | – | > 50% | 1 to 100 nM |
| O=C1N(Cc2ncc(F)cc2F)c2ccccc2C12COc1cc3c(cc12)OCCO3 (stereo not shown) [Example 4.104, 1-[(3,5-difluoropyridin-2-yl)methyl]-2,3-dihydrospiro[furo[2,3-g][1,4]benzodioxine-8,3′-indol]-2′(1′H)-one] | 220 to 222 °C | 1 to 100 nM | < 50% | – |
| O=C1N(Cc2cnc(Br)s2)c2ccccc2C12COc1cc3c(cc12)OCO3 (stereo not shown) [Example 4.81, 1′-[(2-bromo-1,3-thiazol-5-yl)methyl]spiro[furo[2,3-f][1,3]benzodioxole-7,3′-indol]-2′(1′H)-one] | 215 to 217 °C | 1 to 100 nM | > 50% | – |
| O=C1N(Cc2ccccn2)c2ccccc2C12COc1ccc3c(c12)OCCO3 (stereo not shown) [Example 4.127, 1-(pyridin-2-ylmethyl)-2,3-dihydrospiro[furo[3,2-f][1,4]benzodioxine-9,3′-indol]-2′(1′H)-one] | 132 to 134 °C | 1000 to 10000 nM | – | – |
| Cc1cc2c(cc1C)C1(CO2)C(=O)Nc2ccccc21 (stereo not shown) [Example 3.3, 5,6-dimethylspiro[1-benzofuran-3,3′-indol]-2′(1′H)-one] | 206 to 207 °C | 100 to 1000 nM | > 50% | – |
| N#Cc1cccc(CN2C(=O)C3(COc4cc5c(cc43)OCCO5)c3ccccc32)c1 (stereo not shown) [Example 4.94, 3-[(2′-oxo-2,3-dihydrospiro[furo[2,3-g][1,4]benzodioxine-8,3′-indol]-1′(2′H)-yl)methyl]benzonitrile] | 173 to 178 °C | 1 to 100 nM | > 50% | – |
| COc1cc(OC)nc(CN2C(=O)C3(COc4cc5c(cc43)OCCO5)c3ccccc32)n1 (stereo not shown) [Example 5.33, 1′-[(4,6-dimethoxypyrimidin-2-yl)methyl]-2,3-dihydrospiro[furo[2,3-g][1,4]benzodioxine-8,3′-indol]-2′(1′H)-one] | 169 to 170 °C | 1 to 100 nM | > 50% | – |
| CN(C)c1cccc(CN2C(=O)C3(COc4cc5c(cc43)OCCO5)c3ccccc32)n1 (stereo not shown) [Example 32.2, 1-{[6-(dimethylamino)pyridin-2-yl]methyl}-2,3-dihydrospiro[furo[2,3-g][1,4]benzodioxine-8,3′-indol]-2′(1′H)-one] | 196 to 197 °C | – | > 50% | 1 to 100 nM |
| O=C(NCc1cccs1)c1ccc(CN2C(=O)C3(COc4cc5c(cc43)CCO5)c3ccccc32)cc1 (stereo not shown) [Example 12.38, 4-[(2′-oxo-5,6-dihydrospiro[benzo[1,2-b:5,4-b′]difuran-3,3′-indol]-1′(2′H)-yl)methyl]-N-(thiophen-2-ylmethyl)benzamide] | 167 to 168 °C | – | > 50% | 100 to 1000 nM |
| O=C1N(CCCOCc2ccccc2)c2ccccc2C12COc1cc3c(cc12)OCCO3 (stereo not shown) [Example 9.43, 1′-[3-(benzyloxy)propyl]-2,3-dihydrospiro[furo[2,3-g][1,4]-benzodioxine-8,3′-indol]-2′(1′H)-one] | 37 to 38 °C | 1 to 100 nM | < 50% | – |
| CC(C)c1nc(CN2C(=O)C3(COc4cc5c(cc43)OCCO5)c3ccccc32)cs1 (stereo not shown) [Example 4.121, 1′-{[2-(1-methylethyl)-1,3-thiazol-4-yl]methyl}-2,3-dihydrospiro[furo[2,3-g][1,4]benzodioxine-8,3′-indol]-2′(1′H)-one] | 60 to 63 °C | 1 to 100 nM | > 50% | – |
| N#Cc1csc(CN2C(=O)C3(COc4cc5c(cc43)OCO5)c3ccccc32)c1 (stereo not shown) [Example 11.74, 5-[(2′-oxospiro[furo[2,3-][1,3′]benzodioxole-7,3′-indol]-1′(2′H)-yl)methyl]thiophene-3-carbonitrile] | 207 to 209 °C | – | > 50% | 1 to 100 nM |
| CC(C)c1ncc(CN2C(=O)C3(COc4cc5c(cc43)OCO5)c3ccccc32)o1 (stereo not shown) [Example 4.77, 1′-[(2-isopropyl-1,3-oxazol-5-yl)methyl]spiro[furo[2,3-f][1,3]benzodioxole-7,3′-indol]-2′(1′H)-one] | 75 to 77 °C | 1 to 100 nM | > 50% | – |
| Cc1ccc(C)c(NC(=O)CN2C(=O)C3(COc4cc5c(cc43)CCO5)c3ccccc32)c1 (stereo not shown) [Example 12.53, N-(2,5-dimethylphenyl)-2-(2′-oxo-5,6-dihydrospiro[benzo[1,2-b:5,4-b′]difuran-3,3′-indol]-1′(2′H)-yl)acetamide] | 250 to 252 °C | – | < 50% | 1000 to 10000 nM |
| O=C1N(Cc2ccccn2)c2ccccc2C12COc1cc3c(cc12)OCC3 (stereo not shown) [Example 4.52, 1′-(pyridin-2-ylmethyl)-6,7-dihydrospiro[benzo[1,2-b:4,5-b′]difuran-3,3′-indol]-2′(1′H)-one] | 198 to 200 °C | 1 to 100 nM | < 50% | – |
| O=C1N(C[C@H]2CCCO2)c2cc(F)ccc2C12COc1cc3c(cc12)CCO3 (stereo partly drawn) [Example 9.19, 6′-fluoro-1′-[(2R)-tetrahydrofuran-2-ylmethyl]-5,6-dihydrospiro[benzo[1,2-b:5,4-b′]difuran-3,3′-indol]-2′(1′H)-one] | 137 to 139 °C | 100 to 1000 nM | < 50% | – |
| O=C1N(C[C@H](O)CO)c2ccccc2C12COc1cc3c(cc12)OCCO3 (stereo partly drawn) [Example 40, 1′-[(2S)-2,3-dihydroxypropyl]-2,3-dihydrospiro[furo[2,3-g][1,4]benzodioxine-8,3′-indol]-2′(1′H)-one] | 179 to 181 °C | – | – | 100 to 1000 nM |
| O=C1N(C(c2ccccc2)c2ccccc2)c2cccc(F)c2C12COc1cc3c(cc12)OCCO3 (stereo not shown) [Example 2.44, 1′-(diphenylmethyl)-4′-fluoro-2,3-dihydrospiro[furo[2,3-g][1,4]benzodioxine-8,3′-indol]-2′(1′H)-one] | 196 to 198 °C | 100 to 1000 nM | – | – |
| O=C(O)c1ccc(CN2C(=O)C3(COc4cc5c(cc43)OCCO5)c3ccccc32)o1 (stereo not shown) [Example 11.32, 5-[(2′-oxo-2,3-dihydrospiro[furo[2,3-g][1,4]benzodioxine-8,3′-indol]-1′(2′H)-yl)methyl]furan-2-carboxylic acid] | 192 to 195 °C | – | – | 1000 to 10000 nM |
| COc1cccc(Oc2cccc3c2C2(COc4cc5c(cc42)OCCO5)C(=O)N3C)c1 (stereo not shown) [Example 16.79, 4′-(3-methoxyphenoxy)-1′-methyl-2,3-dihydrospiro[furo[2,3-g][1,4]benzodioxine-8,3′-indol]-2′(1′H)-one] | 166 to 168 °C | – | > 50% | – |
| CN1C(=O)C2(COc3cc4c(cc32)OCCO4)c2c(-c3csc(N)n3)cccc21 (stereo not shown) [Example 26, 4′-(2-amino-1,3-thiazol-4-yl)-1′-methyl-2,3-dihydrospiro[furo[2,3-g][1,4]benzodioxine-8,3′-indol]-2′(1′H)-one] | 233 to 234 °C (dec.) | – | > 50% | – |
| CN1C(=O)C2(COc3cc4c(cc32)OCCO4)c2c(NC(=O)NC3CCCCC3)cccc21 (stereo not shown) [Example 16.37, 1-cyclohexyl-3-(1′-methyl-2′-oxo-1′,2,2′,3-tetrahydrospiro[furo[2,3-g][1,4]benzodioxine-8,3′-indol]-4′-yl)urea] | 175 to 177 °C | – | < 50% | – |
| CN1C(=O)C2(COc3cc4c(cc32)OCCO4)c2c(OCc3ccccn3)cccc21 (stereo not shown) [Example 16.85, 1′-methyl-4-(pyridine-2-ylmethoxy)-2,3-dihydrospiro[furo[2,3-g][1,4]benzodioxine-8,3′-indol]-2′(1′H)-one] | 181 to 183 °C | – | > 50% | – |

Source: US8263606B2 (Xenon Pharmaceuticals Inc., priority 2008, dated 2012)
